“Also recorded” adds a separate entry of the source. Square brackets hold non-standard residues; d marks the D form. Ends that are not written are not given here.
Tested on: substance P-induced scratching behavior
Assay: substance P-induced scratching behavior after intrathecal pre-administration of test peptide
Assay type: in vivo, rat
Settings: for scratching behavior induced by substance P / suppressive effects on scratching as administration interval is prolonged: Example 2, FIG. 2; for scratching behavior induced by substance P / suppressive effects on scratching as administration interval is prolonged / scratching behavior induced by substance P / suppressive effects: 10^-3M peptide; for scratching behavior induced by substance P / scratching behavior induced by substance P / suppressive effects: SP 4 hours after peptide; for scratching behavior induced by substance P: control about 380 scratching; for suppressive effects on scratching as administration interval is prolonged: interval 8 hours and then 14 hours; for scratching behavior induced by substance P / suppressive effects: Example 3, FIG. 3, control 380 scratching
Description: In Example 1, 10^−3M (10 nmol/10 μl) EKC/D or D-EKC/D (1), (2) or (3) was administered to intrathecally catheterized rats via catheters. After the predetermined time periods denoted on the horizontal axis in FIG. 1, the numbers of scratching events (scratching behavior) induced by intrathecal administration of 10^−3M (10 nmol/10 μl) substance P (hereafter, referred to as “SP”) were determined. Here, the expression “10^−3M (10 nmol/10 μl) EKC/D or D-EKC/D (1), (2), or (3) was administered” refers to a situation in which 10 μl in total of a solution (that is, 10^−3M solution) containing 10 nmol of EKC/D or D-EKC/D (1), (2), or (3) was all administered. The expression, “ . . . administration of 10^−3M substance P (10 nmol/10 μl)” refers to a situation in which 10 μl in total of a solution (that is, 10^−3M solution) containing 10 nmol of the substance was all administered. The same similarly applies below.
Meanwhile, saline (10 μl) was intrathecally administered to intrathecally catheterized rats via catheters and then, after 30 minutes, 10^−3M SP (10 nmol/10 μl) was intrathecally administered to the rats. The number of the thus induced scratching events was determined to be the number of scratching events in the control group. The control group is denoted with saline-4-SP in FIG. 1.
The vertical axis of the graph in FIG. 1 indicates changes in the numbers of scratching events (represented by relative values) due to administration of 10^−3M EKC/D or D-EKC/D (1), (2), or (3) when the number of scratching events (of untreated rats in a control group) induced by intrathecal administration of 10^−3M substance P was determined to be 100%. Meanwhile, the horizontal axis indicates the intervals between the administration of EKC/D, D-EKC/D (1), (2), or (3) and 10^−3M substance P. […]
The test was conducted with procedures similar to those in Example 1, except for 4 hours of interval between the administration of each test peptide and the administration of substance P. The concentration of each test peptide and that of substance P for administration were determined to be 10^−3M (10 nmol/10 μl), similarly to Example 1. The number of scratching events in the control group was determined with procedures similar to those in Example 1, such that substance P was administered at 30 minutes after administration of saline (10 μl) and then the number was determined.

[1] = 10^-3M (10 nmol/10 μl) Spantide I intrathecal, FIG. 6

| Substance | duration of suppressive effects on substance P-induced scratching behavior [1] [min] | effect on substance P-induced scratching behavior [1] | scratching behavior induced by substance P | suppressive effects on scratching as administration interval is prolonged | scratching behavior induced by substance P / suppressive effects | suppressive effects compared with [D-Trp^10]-EKC/D consisting of 12 amino acids (Example 2 discussion) |
| --- | --- | --- | --- | --- | --- | --- |
| DArg-Pro-Lys-Pro-Gln-Gln-DTrp-Phe-DTrp-Leu-Leu-NH2 ([dR]PKPQQ[dW]F[dW]LL-NH2) [Spantide I, reference compound] | ≤ 30 | suppressed |  |  |  |  |
| His-Thr-Phe-Gln-DTrp-Leu-Leu-NH2 (HTFQXLL; HELM PEPTIDE1{H.T.F.Q.[dW].L.L.[am]}$$$$V2.0; N-terminus assumed; SMILES CC(C)C[C@H](NC(=O)[C@H](CC(C)C)NC(=O)[C@@H](Cc1c[nH]c2ccccc12)NC(=O)[C@H](CCC(N)=O)NC(=O)[C@H](Cc1ccccc1)NC(=O)[C@@H](NC(=O)[C@@H](N)Cc1c[nH]cn1)[C@@H](C)O)C(N)=O) [D-EKC/D (6)] |  |  | significant suppressive effects were observed | attenuated | attenuated |  |
| Leu-Glu-His-Thr-Phe-Gln-DTrp-Leu-Leu-NH2 (LEHTFQXLL; HELM PEPTIDE1{L.E.H.T.F.Q.[dW].L.L.[am]}$$$$V2.0; N-terminus assumed; SMILES CC(C)C[C@H](NC(=O)[C@H](CC(C)C)NC(=O)[C@@H](Cc1c[nH]c2ccccc12)NC(=O)[C@H](CCC(N)=O)NC(=O)[C@H](Cc1ccccc1)NC(=O)[C@@H](NC(=O)[C@H](Cc1c[nH]cn1)NC(=O)[C@H](CCC(=O)O)NC(=O)[C@@H](N)CC(C)C)[C@@H](C)O)C(N)=O) [D-EKC/D (4)] |  |  | never induced | gradually attenuated | attenuated | suppressive effects almost similar to those of [D-Trp^10]-EKC/D |
| Phe-Gln-DTrp-Leu-Leu-NH2 (FQXLL; HELM PEPTIDE1{F.Q.[dW].L.L.[am]}$$$$V2.0; N-terminus assumed; SMILES CC(C)C[C@H](NC(=O)[C@H](CC(C)C)NC(=O)[C@@H](Cc1c[nH]c2ccccc12)NC(=O)[C@H](CCC(N)=O)NC(=O)[C@@H](N)Cc1ccccc1)C(N)=O) [D-EKC/D (8)] |  |  |  |  | Almost no suppressive effects; also recorded: almost the same as that of the control group |  |
| Thr-Phe-Gln-DTrp-Leu-Leu-NH2 (TFQXLL; HELM PEPTIDE1{T.F.Q.[dW].L.L.[am]}$$$$V2.0; N-terminus assumed; SMILES CC(C)C[C@H](NC(=O)[C@H](CC(C)C)NC(=O)[C@@H](Cc1c[nH]c2ccccc12)NC(=O)[C@H](CCC(N)=O)NC(=O)[C@H](Cc1ccccc1)NC(=O)[C@@H](N)[C@@H](C)O)C(N)=O) [D-EKC/D (7)] |  |  |  |  | attenuated; also recorded: minimum suppressive effects |  |
